Active and inactive are the calls of the source. The calls are words filed in the database; no cut-off is given here.
Tested on: PC-12
Experiment: Increase of synaptic activity in rat PC12 cells after 5 days by fluorescence assay
Format: functional, cell-based
Conditions: PC-12, 120 h

Structure (SMILES) | EC50
CCc1nc2cc(/C=C/C(=O)NO)ccc2c(=O)n1CCc1ccccc1 | 7200 nM
Cc1nc2cc(/C=C/C(=O)NO)ccc2c(=O)n1Cc1ccccc1 | 8200 nM
CCc1nc2ccc(Cc3ccc(C(=O)NO)cc3)cc2c(=O)n1CCc1ccccc1 | 2900 nM
O=C(/C=C/c1ccc2c(=O)n(CCc3ccccc3)cnc2c1)NO | 14500 nM

Tested on: SH-SY5Y
Experiment: Induction of neurite outgrowth in human SH-SY5Y cells at 10 uM after 5 days
Format: functional, cell-based
Conditions: not given

Structure (SMILES) | Activity
CCc1nc2cc(/C=C/C(=O)NO)ccc2c(=O)n1CCc1ccccc1 | Active
Cc1nc2cc(/C=C/C(=O)NO)ccc2c(=O)n1Cc1ccccc1 | Active
CCc1nc2ccc(Cc3ccc(C(=O)NO)cc3)cc2c(=O)n1CCc1ccccc1 | Active
O=C(/C=C/c1ccc2c(=O)n(CCc3ccccc3)cnc2c1)NO | Active

Tested on: PC-12
Experiment: Induction of neurite outgrowth in rat PC12 cells after 5 days
Format: functional, cell-based
Conditions: PC-12, 120 h

Structure (SMILES) | EC50
CCc1nc2cc(/C=C/C(=O)NO)ccc2c(=O)n1CCc1ccccc1 | 5300 nM
Cc1nc2cc(/C=C/C(=O)NO)ccc2c(=O)n1Cc1ccccc1 | 20900 nM
CCc1nc2ccc(Cc3ccc(C(=O)NO)cc3)cc2c(=O)n1CCc1ccccc1 | 9400 nM
O=C(/C=C/c1ccc2c(=O)n(CCc3ccccc3)cnc2c1)NO | > 25000 nM

Tested on: PC-12
Experiment: Induction iof GAP-43 protein expression in rat PC12 cells after 48 hrs by Western blotting analysis
Format: functional, cell-based
Conditions: not given

Structure (SMILES) | Activity
CCc1nc2cc(/C=C/C(=O)NO)ccc2c(=O)n1CCc1ccccc1 | Dose-dependent effect

Target: T1, Protein deacetylase HDAC6 (Homo sapiens, UniProt Q9UBN7)
T1 sequence (Q9UBN7 whole entry): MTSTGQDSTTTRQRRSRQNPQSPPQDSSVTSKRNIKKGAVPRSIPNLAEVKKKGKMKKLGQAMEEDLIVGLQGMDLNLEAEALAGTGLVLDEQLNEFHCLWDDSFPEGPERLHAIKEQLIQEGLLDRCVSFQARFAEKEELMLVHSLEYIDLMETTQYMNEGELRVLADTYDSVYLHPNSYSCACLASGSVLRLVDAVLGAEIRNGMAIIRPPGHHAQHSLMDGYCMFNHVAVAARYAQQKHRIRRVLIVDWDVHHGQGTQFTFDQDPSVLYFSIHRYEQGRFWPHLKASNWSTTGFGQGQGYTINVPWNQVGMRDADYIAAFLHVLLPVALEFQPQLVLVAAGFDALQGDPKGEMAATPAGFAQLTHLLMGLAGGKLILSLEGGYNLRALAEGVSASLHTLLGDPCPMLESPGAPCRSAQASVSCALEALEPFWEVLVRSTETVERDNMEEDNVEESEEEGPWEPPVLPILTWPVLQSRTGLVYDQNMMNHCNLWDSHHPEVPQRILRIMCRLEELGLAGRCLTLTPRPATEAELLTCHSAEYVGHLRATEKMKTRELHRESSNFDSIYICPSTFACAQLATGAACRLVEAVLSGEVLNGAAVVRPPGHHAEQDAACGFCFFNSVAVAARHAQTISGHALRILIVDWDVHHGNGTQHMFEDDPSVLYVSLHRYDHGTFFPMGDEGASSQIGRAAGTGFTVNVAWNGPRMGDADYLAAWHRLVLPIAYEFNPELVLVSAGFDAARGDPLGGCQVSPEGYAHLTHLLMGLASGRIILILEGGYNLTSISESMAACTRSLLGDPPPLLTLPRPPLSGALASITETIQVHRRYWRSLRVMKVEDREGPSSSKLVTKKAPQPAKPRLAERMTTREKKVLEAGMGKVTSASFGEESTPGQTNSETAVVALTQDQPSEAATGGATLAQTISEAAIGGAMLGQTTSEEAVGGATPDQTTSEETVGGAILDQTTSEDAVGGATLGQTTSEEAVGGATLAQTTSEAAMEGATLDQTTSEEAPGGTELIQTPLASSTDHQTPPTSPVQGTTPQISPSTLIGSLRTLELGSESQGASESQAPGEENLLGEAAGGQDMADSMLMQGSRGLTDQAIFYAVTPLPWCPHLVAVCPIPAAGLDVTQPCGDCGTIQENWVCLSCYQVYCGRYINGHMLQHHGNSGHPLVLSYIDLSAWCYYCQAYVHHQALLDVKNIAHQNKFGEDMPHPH
Experiment: Inhibition of human recombinant HDAC6 expressed in baculovirus/sf9 cells using RHKKAc as substrate
Conditions: not given

Structure (SMILES) | IC50
CCc1nc2cc(/C=C/C(=O)NO)ccc2c(=O)n1CCc1ccccc1 | 11 nM
Cc1nc2cc(/C=C/C(=O)NO)ccc2c(=O)n1Cc1ccccc1 | 24 nM
CCc1nc2ccc(Cc3ccc(C(=O)NO)cc3)cc2c(=O)n1CCc1ccccc1 | 11 nM
O=C(/C=C/c1ccc2c(=O)n(CCc3ccccc3)cnc2c1)NO | 35 nM

Tested on: SH-SY5Y
Experiment: Induction of neurite outgrowth in human SH-SY5Y cells after 5 days
Format: functional, cell-based
Conditions: 120 h

Structure (SMILES) | EC50
CCc1nc2cc(/C=C/C(=O)NO)ccc2c(=O)n1CCc1ccccc1 | 11000 nM
Cc1nc2cc(/C=C/C(=O)NO)ccc2c(=O)n1Cc1ccccc1 | > 25000 nM
CCc1nc2ccc(Cc3ccc(C(=O)NO)cc3)cc2c(=O)n1CCc1ccccc1 | 18400 nM
O=C(/C=C/c1ccc2c(=O)n(CCc3ccccc3)cnc2c1)NO | 15000 nM

Tested on: PC-12
Experiment: Induction of neurite outgrowth in rat PC12 cells at 10 uM after 5 days
Format: functional, cell-based
Conditions: not given

Structure (SMILES) | Activity
CCc1nc2cc(/C=C/C(=O)NO)ccc2c(=O)n1CCc1ccccc1 | Active
Cc1nc2cc(/C=C/C(=O)NO)ccc2c(=O)n1Cc1ccccc1 | Active
CCc1nc2ccc(Cc3ccc(C(=O)NO)cc3)cc2c(=O)n1CCc1ccccc1 | Active
O=C(/C=C/c1ccc2c(=O)n(CCc3ccccc3)cnc2c1)NO | Active

Tested on: SH-SY5Y
Experiment: Increase of synaptic activity in human SH-SY5Y cells after 5 days by fluorescence assay
Format: functional, cell-based
Conditions: 120 h

Structure (SMILES) | EC50
CCc1nc2cc(/C=C/C(=O)NO)ccc2c(=O)n1CCc1ccccc1 | 900 nM
Cc1nc2cc(/C=C/C(=O)NO)ccc2c(=O)n1Cc1ccccc1 | 8200 nM
CCc1nc2ccc(Cc3ccc(C(=O)NO)cc3)cc2c(=O)n1CCc1ccccc1 | 4100 nM
O=C(/C=C/c1ccc2c(=O)n(CCc3ccccc3)cnc2c1)NO | 4900 nM

Target: T2, Histone deacetylase 8 (Homo sapiens, UniProt Q9BY41)
T2 sequence (Q9BY41 whole entry): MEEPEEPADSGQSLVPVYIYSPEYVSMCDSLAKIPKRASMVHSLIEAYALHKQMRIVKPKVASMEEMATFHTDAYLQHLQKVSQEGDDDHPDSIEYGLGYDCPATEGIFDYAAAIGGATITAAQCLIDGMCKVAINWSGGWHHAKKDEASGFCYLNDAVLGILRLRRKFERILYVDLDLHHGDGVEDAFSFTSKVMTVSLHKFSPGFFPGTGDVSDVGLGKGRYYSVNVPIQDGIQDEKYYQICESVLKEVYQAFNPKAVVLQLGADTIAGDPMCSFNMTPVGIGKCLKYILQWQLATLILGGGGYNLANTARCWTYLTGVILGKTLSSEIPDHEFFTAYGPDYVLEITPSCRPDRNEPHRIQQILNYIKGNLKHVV
Experiment: Inhibition of human recombinant HDAC8 expressed in baculovirus/sf9 cells using RHKAcKAc as substrate
Conditions: not given

Structure (SMILES) | IC50
CCc1nc2cc(/C=C/C(=O)NO)ccc2c(=O)n1CCc1ccccc1 | 1180 nM
Cc1nc2cc(/C=C/C(=O)NO)ccc2c(=O)n1Cc1ccccc1 | 1270 nM
CCc1nc2ccc(Cc3ccc(C(=O)NO)cc3)cc2c(=O)n1CCc1ccccc1 | 99 nM
O=C(/C=C/c1ccc2c(=O)n(CCc3ccccc3)cnc2c1)NO | 600 nM

Target: Histone deacetylase 1 (Homo sapiens, UniProt Q13547)
Experiment: Inhibition of human recombinant HDAC1 expressed in baculovirus/sf9 cells using RHKKAc as substrate
Conditions: not given

Chain of Histone deacetylase 1 (Q13547 whole entry): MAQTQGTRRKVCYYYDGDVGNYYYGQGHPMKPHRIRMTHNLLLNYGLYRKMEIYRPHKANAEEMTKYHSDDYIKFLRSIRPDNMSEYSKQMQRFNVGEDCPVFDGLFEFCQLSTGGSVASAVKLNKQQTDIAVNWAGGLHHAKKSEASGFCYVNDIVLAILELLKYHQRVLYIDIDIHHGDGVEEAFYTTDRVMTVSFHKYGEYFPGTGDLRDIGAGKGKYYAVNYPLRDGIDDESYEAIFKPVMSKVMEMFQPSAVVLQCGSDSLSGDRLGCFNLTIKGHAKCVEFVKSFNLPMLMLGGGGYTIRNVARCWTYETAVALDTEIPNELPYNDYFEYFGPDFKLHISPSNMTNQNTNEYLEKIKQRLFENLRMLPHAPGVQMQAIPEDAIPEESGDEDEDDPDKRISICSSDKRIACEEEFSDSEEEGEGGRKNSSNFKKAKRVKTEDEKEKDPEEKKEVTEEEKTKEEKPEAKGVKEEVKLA

Structure (SMILES) | IC50
CCc1nc2cc(/C=C/C(=O)NO)ccc2c(=O)n1CCc1ccccc1 | 1190 nM
Cc1nc2cc(/C=C/C(=O)NO)ccc2c(=O)n1Cc1ccccc1 | 1450 nM
CCc1nc2ccc(Cc3ccc(C(=O)NO)cc3)cc2c(=O)n1CCc1ccccc1 | 1050 nM
O=C(/C=C/c1ccc2c(=O)n(CCc3ccccc3)cnc2c1)NO | 495 nM

Target: Histone deacetylase 2 (Homo sapiens, UniProt Q92769)
Experiment: Inhibition of human recombinant HDAC2 expressed in baculovirus/sf9 cells using RHKKAc as substrate
Conditions: not given

Chain of Histone deacetylase 2 (Q92769 whole entry): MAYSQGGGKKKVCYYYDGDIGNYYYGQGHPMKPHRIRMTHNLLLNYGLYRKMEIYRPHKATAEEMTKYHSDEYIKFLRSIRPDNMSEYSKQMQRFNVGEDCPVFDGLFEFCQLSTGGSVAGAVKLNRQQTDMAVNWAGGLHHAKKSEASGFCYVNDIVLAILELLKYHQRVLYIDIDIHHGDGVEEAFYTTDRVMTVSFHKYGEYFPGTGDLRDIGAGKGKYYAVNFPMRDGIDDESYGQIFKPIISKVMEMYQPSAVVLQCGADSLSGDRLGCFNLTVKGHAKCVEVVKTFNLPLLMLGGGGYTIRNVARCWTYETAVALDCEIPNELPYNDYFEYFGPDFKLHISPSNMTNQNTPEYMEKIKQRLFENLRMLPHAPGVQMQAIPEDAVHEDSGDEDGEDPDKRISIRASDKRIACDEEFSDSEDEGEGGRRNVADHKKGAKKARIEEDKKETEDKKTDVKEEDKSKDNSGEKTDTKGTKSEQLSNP

Structure (SMILES) | IC50
CCc1nc2cc(/C=C/C(=O)NO)ccc2c(=O)n1CCc1ccccc1 | 4810 nM
Cc1nc2cc(/C=C/C(=O)NO)ccc2c(=O)n1Cc1ccccc1 | 4000 nM
CCc1nc2ccc(Cc3ccc(C(=O)NO)cc3)cc2c(=O)n1CCc1ccccc1 | 3610 nM
O=C(/C=C/c1ccc2c(=O)n(CCc3ccccc3)cnc2c1)NO | 1220 nM

Tested on: Vero
Experiment: Cytotoxicity against african green monkey Vero cells at 25 uM
Format: cell-based
Conditions: chlorocebus sabaeus

Structure (SMILES) | Activity
CCc1nc2cc(/C=C/C(=O)NO)ccc2c(=O)n1CCc1ccccc1 | Non-toxic
Cc1nc2cc(/C=C/C(=O)NO)ccc2c(=O)n1Cc1ccccc1 | Non-toxic
CCc1nc2ccc(Cc3ccc(C(=O)NO)cc3)cc2c(=O)n1CCc1ccccc1 | Non-toxic
O=C(/C=C/c1ccc2c(=O)n(CCc3ccccc3)cnc2c1)NO | Non-toxic

Tested on: PC-12
Experiment: Cytotoxicity against rat PC12 cells at 25 uM
Format: cell-based
Conditions: pc-12, 25 µM

Structure (SMILES) | Activity
CCc1nc2cc(/C=C/C(=O)NO)ccc2c(=O)n1CCc1ccccc1 | Non-toxic
Cc1nc2cc(/C=C/C(=O)NO)ccc2c(=O)n1Cc1ccccc1 | Non-toxic
CCc1nc2ccc(Cc3ccc(C(=O)NO)cc3)cc2c(=O)n1CCc1ccccc1 | Non-toxic
O=C(/C=C/c1ccc2c(=O)n(CCc3ccccc3)cnc2c1)NO | Non-toxic

Target: Poly [ADP-ribose] polymerase 1 (Homo sapiens) (UniProt P09874)
Experiment: Inhibition of PARP1 (unknown origin) up to 25 uM
Conditions: not given

Chain of Poly [ADP-ribose] polymerase 1 (Homo sapiens) (P09874 whole entry): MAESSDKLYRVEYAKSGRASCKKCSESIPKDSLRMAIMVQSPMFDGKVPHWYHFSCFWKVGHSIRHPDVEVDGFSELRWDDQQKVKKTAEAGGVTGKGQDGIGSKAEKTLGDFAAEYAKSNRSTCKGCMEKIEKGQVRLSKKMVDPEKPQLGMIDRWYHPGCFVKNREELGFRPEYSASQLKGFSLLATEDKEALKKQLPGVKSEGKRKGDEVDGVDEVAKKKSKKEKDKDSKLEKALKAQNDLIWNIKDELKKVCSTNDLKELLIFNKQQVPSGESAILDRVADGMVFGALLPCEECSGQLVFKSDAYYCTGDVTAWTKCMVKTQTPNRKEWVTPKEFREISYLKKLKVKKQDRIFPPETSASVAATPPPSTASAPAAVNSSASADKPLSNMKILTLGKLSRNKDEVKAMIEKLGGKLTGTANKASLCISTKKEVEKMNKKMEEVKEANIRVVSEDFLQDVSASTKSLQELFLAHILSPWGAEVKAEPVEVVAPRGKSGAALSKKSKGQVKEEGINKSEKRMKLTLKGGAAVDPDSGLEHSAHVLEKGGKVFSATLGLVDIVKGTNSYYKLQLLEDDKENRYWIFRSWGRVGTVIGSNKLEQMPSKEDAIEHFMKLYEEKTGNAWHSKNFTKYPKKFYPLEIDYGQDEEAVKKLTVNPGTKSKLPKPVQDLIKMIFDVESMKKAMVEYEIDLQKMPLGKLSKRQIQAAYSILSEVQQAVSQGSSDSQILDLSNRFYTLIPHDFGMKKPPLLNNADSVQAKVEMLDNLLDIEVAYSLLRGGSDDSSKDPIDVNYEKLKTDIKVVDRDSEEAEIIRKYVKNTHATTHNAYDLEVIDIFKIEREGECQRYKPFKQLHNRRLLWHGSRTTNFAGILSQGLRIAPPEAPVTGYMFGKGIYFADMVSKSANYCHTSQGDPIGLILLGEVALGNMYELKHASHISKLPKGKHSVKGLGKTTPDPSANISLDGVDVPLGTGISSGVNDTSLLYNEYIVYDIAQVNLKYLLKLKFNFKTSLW

Structure (SMILES) | inhibition
CCc1nc2cc(/C=C/C(=O)NO)ccc2c(=O)n1CCc1ccccc1 | inactive

Tested on: not listed separately
Experiment: Cytotoxicity against human SH-SY5Y cells at 25 uM
Format: cell-based
Conditions: not given

Structure (SMILES) | Activity
CCc1nc2cc(/C=C/C(=O)NO)ccc2c(=O)n1CCc1ccccc1 | Non-toxic
Cc1nc2cc(/C=C/C(=O)NO)ccc2c(=O)n1Cc1ccccc1 | Non-toxic
CCc1nc2ccc(Cc3ccc(C(=O)NO)cc3)cc2c(=O)n1CCc1ccccc1 | Non-toxic
O=C(/C=C/c1ccc2c(=O)n(CCc3ccccc3)cnc2c1)NO | Non-toxic

Target: T3, Histone deacetylase 11 (Homo sapiens, UniProt Q96DB2)
T3 sequence (Q96DB2 whole entry): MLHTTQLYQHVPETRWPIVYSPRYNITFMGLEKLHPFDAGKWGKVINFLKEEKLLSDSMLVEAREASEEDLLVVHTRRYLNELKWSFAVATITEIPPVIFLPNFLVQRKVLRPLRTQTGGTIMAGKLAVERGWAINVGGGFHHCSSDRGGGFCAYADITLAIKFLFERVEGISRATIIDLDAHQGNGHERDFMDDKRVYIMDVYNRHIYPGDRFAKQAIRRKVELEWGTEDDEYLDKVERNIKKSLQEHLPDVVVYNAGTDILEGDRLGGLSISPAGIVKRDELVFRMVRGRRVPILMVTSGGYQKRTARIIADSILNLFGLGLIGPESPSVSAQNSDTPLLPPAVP
Experiment: Inhibition of human recombinant HDAC11 expressed in baculovirus/sf9 cells using RHKKAc as substrate
Conditions: not given

Structure (SMILES) | IC50
CCc1nc2cc(/C=C/C(=O)NO)ccc2c(=O)n1CCc1ccccc1 | 2950 nM
Cc1nc2cc(/C=C/C(=O)NO)ccc2c(=O)n1Cc1ccccc1 | 2440 nM
CCc1nc2ccc(Cc3ccc(C(=O)NO)cc3)cc2c(=O)n1CCc1ccccc1 | 656 nM
O=C(/C=C/c1ccc2c(=O)n(CCc3ccccc3)cnc2c1)NO | 730 nM

Target: Amyloid-beta precursor protein (Homo sapiens, UniProt P05067)
Experiment: Inhibition of amyloid beta aggregation (unknown origin) after 4 hrs by thioflavin S assay in absence of Zn2+
Conditions: not given

Chain of Amyloid-beta precursor protein (P05067 whole entry): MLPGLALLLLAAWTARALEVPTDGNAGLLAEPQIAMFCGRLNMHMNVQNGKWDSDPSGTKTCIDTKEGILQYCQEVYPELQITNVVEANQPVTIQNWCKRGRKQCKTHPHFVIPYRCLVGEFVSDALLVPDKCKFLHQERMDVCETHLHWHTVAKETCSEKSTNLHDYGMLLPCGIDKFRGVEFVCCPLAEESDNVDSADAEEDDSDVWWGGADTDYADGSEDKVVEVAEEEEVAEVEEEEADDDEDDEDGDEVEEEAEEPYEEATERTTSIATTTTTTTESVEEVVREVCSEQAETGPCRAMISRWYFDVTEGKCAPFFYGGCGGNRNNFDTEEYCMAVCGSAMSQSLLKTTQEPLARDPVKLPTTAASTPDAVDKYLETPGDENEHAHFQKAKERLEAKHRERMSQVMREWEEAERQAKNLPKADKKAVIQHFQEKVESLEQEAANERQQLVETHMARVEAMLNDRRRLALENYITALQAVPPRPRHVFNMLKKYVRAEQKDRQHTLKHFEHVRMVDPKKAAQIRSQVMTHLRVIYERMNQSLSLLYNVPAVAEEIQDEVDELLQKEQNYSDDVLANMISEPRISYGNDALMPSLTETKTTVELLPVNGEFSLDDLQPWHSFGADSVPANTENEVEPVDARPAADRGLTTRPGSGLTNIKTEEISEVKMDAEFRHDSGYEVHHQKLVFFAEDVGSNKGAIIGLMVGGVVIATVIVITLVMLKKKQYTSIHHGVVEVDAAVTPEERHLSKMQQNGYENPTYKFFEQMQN

Structure (SMILES) | IC50
CCc1nc2cc(/C=C/C(=O)NO)ccc2c(=O)n1CCc1ccccc1 | > 50000 nM
Cc1nc2cc(/C=C/C(=O)NO)ccc2c(=O)n1Cc1ccccc1 | > 50000 nM
O=C(/C=C/c1ccc2c(=O)n(CCc3ccccc3)cnc2c1)NO | > 50000 nM
